Assay results: US20250051277A1, “DELIVERY OF THERAPEUTIC ALKALOID COMPOUNDS” (Sensorium Therapeutics, Inc., priority 2021, published 2025)
Where two headings read alike, the source gives them in different places.

What was measured:
[1] = Hydrolysis Assay of Example A1 (conversion by LCMS); format: physicochemical; conditions: for Conversion (%) / Notes (hydrolysis): 0.5 mM, 0.01M HCl
Protocol: The hydrolysis kinetics was under a certain temperature and measured by LCMS at a certain time interval. The corresponding LCMS chromatograms were recorded and the conversions were calculated. The hydrolysis conditions and the data were summarized in below table. LCMS spectra were obtained using Agilent 1200/G1956A or SHIMADZU LCMS-2020. Standard LCMS conditions were as follows (running time 1.55 minutes): • Acidic condition: Mobile Phase A: 0.0375% TFA in water (v/v). Mobile Phase B: 0.01875% TFA in acetonitrile (v/v); Column: Kinetex EVO C18 30*2.1 mm, 5 μm. • Basic condition: Mobile Phase A: 0.025% NH3·H2O in water (v/v). Mobile Phase B: Acetonitrile; Column: Kinetex EVO C18 2.1×30 mm, 5 μm. • Conversion (%)=peak area 1/(peak area 1+peak area 2)*100%, peak area 1 is the integration of hydrolyzed product, peak area 2 is the integration of starting material.

[2] = format: physicochemical; conditions: SGF with pepsin, pH 1.5, 37° C., 0.5 mM
[3] = format: physicochemical; conditions: DI water, 25° C., 0.5 mM
[4] = Plasma Stability Assay of Example A3, mouse plasma; conditions: 5 μM, 37° C., % of prodrug compound remaining
[5] = 5 μM
[6] = Plasma Stability Assay of Example A3, human plasma; conditions: 5 μM, 37° C., % of prodrug compound remaining
[7] = 0 min, 5 μM

Row | Compound | Condition 1 Conversion (%) ([2]; time 1 min) | Condition 1 Conversion (%) ([2]; time 5 min) | Condition 1 Conversion (%) ([2]; time 30 min) | Condition 1 Conversion (%) ([2]; time 1 h) | Condition 1 Conversion (%) ([2]; time 4 h) | Condition 1 Conversion (%) ([2]; time 24 h) | Condition 2 Conversion (%) ([3]; time 1 min) | Condition 2 Conversion (%) ([3]; time 5 min) | Condition 2 Conversion (%) ([3]; time 30 min) | Condition 2 Conversion (%) ([3]; time 1 h) | Condition 2 Conversion (%) ([3]; time 4 h) | Condition 2 Conversion (%) ([3]; time 24 h) | Mouse Plasma Prodrug (%) ([4]; 0 min) | Mouse Plasma Prodrug (%) ([4]; 15 min) | Mouse Plasma Prodrug (%) ([4]; 30 min) | Mouse Plasma Prodrug (%) ([4]; 60 min) | Mouse Plasma Prodrug (%) ([4]; 120 min) | Mouse Plasma Prodrug (%) ([4]; 240 min) | Human Plasma Prodrug (%) ([6]; 0 min) | Human Plasma Prodrug (%) ([6]; 15 min) | also measured
1 | COc1ccc([C@@]23CCC(=NO)C[C@@H]2N(C)CC3)cc1OC (mixture of isomers) [Compound 037] | 0 | 0 | 82.3 | 89 | 89.2 | 89.5 |  |  |  |  |  |  |  |  |  |  |  |  |  |  | conversion to mesembrine in the Hydrolysis Assay ([1]; acidic pH 2.0, temperatures of 25 or 37° C.): converted to mesembrine; Conversion (%) ([1]; pH = 2.0, 37° C., 10 min): 59%; Conversion (%) ([1]; pH = 2.0, 37° C., 60 min): 84%; Conversion (%) ([1]; pH = 2.0, 37° C., 90 min): 87%
2 | COc1ccc([C@]23CCN(C)[C@H]2CC2(CC3)OCCO2)cc1OC (racemic) [Compound 013, 3′a-(3,4-dimethoxyphenyl)-1′-methyl-spiro[1,3-dioxolane-2,6′-2,3,4,5,7,7a-hexahydroindole]] |  |  |  |  |  |  |  |  |  |  |  |  |  |  |  |  |  |  |  |  | conversion to mesembrine in the Hydrolysis Assay ([1]; acidic pH 2.0, 5° C. as printed): not at 5 °C; conversion to mesembrine in the Hydrolysis Assay ([1]; acidic pH 2.0, temperatures of 37 and 50° C.): converted to mesembrine; Conversion (%) ([1]; pH = 2.0, 25° C., 0-24 h): 0%; Notes (hydrolysis) ([1]; pH = 2.0, 25° C., 0-24 h): Stable; Conversion (%) ([1]; pH = 2.0, 37° C., 16 h): 17%; Conversion (%) ([1]; pH = 2.0, 37° C., 24 h): 22%; Conversion (%) ([1]; pH = 2.0, 37° C., 42 h): 35%; Conversion (%) ([1]; pH = 2.0, 37° C., 56 h): 50%; Conversion (%) ([1]; pH = 2.0, 37° C., 7 d): 77%; Conversion (%) ([1]; pH = 2.0, 50° C., 10 min): 1%; Conversion (%) ([1]; pH = 2.0, 50° C., 40 min): 2%; Conversion (%) ([1]; pH = 2.0, 50° C., 120 min): 19%; Conversion (%) ([1]; pH = 2.0, 50° C., 22 h): 90%
3 | COc1ccc([C@]23CCN(C)[C@H]2CC2(CC3)SCCS2)cc1OC (racemic) [Compound 014, (7′aS)-3′a-(3,4-dimethoxyphenyl)-1′-methyl-spiro[1,3-dithiolane-2,6′-2,3,4,5,7,7a-hexahydroindole]] |  |  |  |  |  |  |  |  |  |  |  |  |  |  |  |  |  |  |  |  | Conversion (%) ([1]; pH = 2.0, 25° C., 0-24 h): 0%; Notes (hydrolysis) ([1]; pH = 2.0, 25° C., 0-24 h): Stable
4 | COc1ccc([C@@]23CC/C(=N\NC(=O)c4cccnc4)C[C@@H]2N(C)CC3)cc1OC [Compound 036, N-[[(3aS,7aS)-3a-(3,4-dimethoxyphenyl)-1-methyl-2,3,4,5,7,7a-hexahydroindol-6-ylidene]amino]pyridine-3-carboxamide] | 100 | 100 | 100 | 100 | 100 | 100 |  |  |  |  |  |  |  |  |  |  |  |  |  |  | Notes (hydrolysis) ([1]; pH = 2.0, 37° C., 0 to 1 min): Hydrolyzed; Conversion (%) ([1]; pH = 2.0, 37° C., 1 min): 100%; Conversion (%) ([1]; pH = 2.0, 37° C., time 0): 0%
5 | COc1ccc([C@@]23CCC(OC(=O)C4CC4)=C[C@@H]2N(C)CC3)cc1OC [Compound 312, [(3aS,7aS)-3a-(3,4-dimethoxyphenyl)-1-methyl-3,4,5,7a-tetrahydro-2H-indol-6-yl]cyclopropanecarboxylate] | 0 | 0 | 0 | 0 | 0 | 0 | 0 | 0 | 0 | 0 | 0 | 0 | 100.0 | 3.5 | 1.6 | 2.2 | 2.8 | 0.8 | 100.0 | 8.1 | Mouse Plasma Compound 001 (%) ([5]; 15 min): 66.1%; Mouse Plasma Compound 001 (%) ([5]; 30 min): 70.8%; Mouse Plasma Compound 001 (%) ([5]; 60 min): 64.4%; Mouse Plasma Compound 001 (%) ([5]; 120 min): 61.7%; Mouse Plasma Compound 001 (%) ([5]; 240 min): 61.5%; Human Plasma Prodrug (%) ([6]; 30 min): 6.2%; Human Plasma Prodrug (%) ([6]; 60 min): 20.9%; Human Plasma Prodrug (%) ([6]; 120 min): 10.5%; Human Plasma Prodrug (%) ([6]; 240 min): 13.8%
6 | C/C=C(\C)C(=O)OC1=C[C@@H]2N(C)CC[C@]2(c2ccc(OC)c(OC)c2)CC1 [Compound 313, [(3aS,7aS)-3a-(3,4-dimethoxyphenyl)-1-methyl-3,4,5,7a-tetrahydro-2H-indol-6-yl](E)-2-methylbut-2-enoate] | 0 | 0 | 0 | 0 | 0 | 0 | 0 | 0 | 0 | 0 | 0 | 0 | 100.0 | 2.1 | 0.7 | 0.1 | 0.0 | 0.0 | 100.0 | 62.2 | Mouse Plasma Compound 001 (%) ([5]; 15 min): 37.2%; Mouse Plasma Compound 001 (%) ([5]; 30 min): 36.3%; Mouse Plasma Compound 001 (%) ([5]; 60 min): 37.1%; Mouse Plasma Compound 001 (%) ([5]; 120 min): 35.2%; Mouse Plasma Compound 001 (%) ([5]; 240 min): 35.0%; Human Plasma Prodrug (%) ([6]; 30 min): 35.1%; Human Plasma Prodrug (%) ([6]; 60 min): 12.8%; Human Plasma Prodrug (%) ([6]; 120 min): 2.4%; Human Plasma Prodrug (%) ([6]; 240 min): 0.4%
7 | C=C(C)C(=O)OC1=C[C@@H]2N(C)CC[C@]2(c2ccc(OC)c(OC)c2)CC1 [Compound 315, [(3aS,7aS)-3a-(3,4-dimethoxyphenyl)-1-methyl-3,4,5,7a-tetrahydro-2H-indol-6-yl]-2-methylprop-2-enoate] | 0 | 0 | 0 | 0 | 0 | 0 | 0 | 0 | 0 | 0 | 0 | 0 | 100.0 | 5.3 | 2.4 | 1.3 | 2.0 | 1.9 | 100.0 | 16.6 | Mouse Plasma Compound 001 (%) ([5]; 15 min): 60.4%; Mouse Plasma Compound 001 (%) ([5]; 30 min): 61.9%; Mouse Plasma Compound 001 (%) ([5]; 120 min): 57.3%; Mouse Plasma Compound 001 (%) ([5]; 240 min): 55.8%; Human Plasma Prodrug (%) ([6]; 30 min): 2.3%; Human Plasma Prodrug (%) ([6]; 60 min): 0.5%; Human Plasma Prodrug (%) ([6]; 120 min): 0.2%; Human Plasma Prodrug (%) ([6]; 240 min): 0.0%
8 | COc1ccc([C@@]23CCC(OC(=O)c4ccc(N(C)C)cc4)=C[C@@H]2N(C)CC3)cc1OC [Compound 355, [(3aS,7aS)-3a-(3,4-dimethoxyphenyl)-1-methyl-3,4,5,7a-tetrahydro-2H-indol-6-yl]4-(dimethylamino)benzoate] | 0 | 0 | 0 | 0 | 0 | 0 | 0 | 0 | 0 | 0 | 0 | 0 | 100.0 | 50.6 | 30.8 | 9.9 | 0.5 | 0.0 | 100.0 | >99 | Human Plasma Compound 001 (%) [7]: 0.0%; Human Plasma Prodrug (%) ([6]; 30 min): >99%; Human Plasma Prodrug (%) ([6]; 60 min): >99%; Human Plasma Prodrug (%) ([6]; 120 min): >99%; Human Plasma Prodrug (%) ([6]; 240 min): 93.2%
